Here are results for 1 compound from patent US20160050920A1, “METHODS TO IMPROVE NODAL ROOTS” (Valent BioSciences Corporation, priority 2014, published 2016).

What all share (type): in vivo
For assay [1], the system named is Hybrid corn. The experiment in a line: Example 4: field study, number and dry weight of roots in two corn hybrids. Also noted: Dry weight of nodes 1 to 3 / Dry weight of nodes 4 to 7 / Total dry weight: unit not given here. How it is done:
Another field study was conducted in order to determine the effects of GA3 on root development. Two types of hybrid corn seeds were planted during the spring season. The plants were treated with 0 or 2.75g ai/hectare of GA3 as formulated in RyzUp SmartGrass® using a TeeJet° 8002 VS spray tip on a manual sprayer set at 15 gallons per acre. Distilled water was used and non-ionic surfactant (0.25% v/v). The treatments were applied when the corn was at the V4 stage of development. The plants were then destructively harvested 32 days after treatments and their number of roots, dry weight, and dry weight of nodal roots were evaluated.

Assay [2] deals with Hybrid corn. As to the kind of experiment: Example 1: potted hybrid corn, newest nodal roots after GA3 foliar spray. From the text:
Hybrid corn seed was planted 3.8 centimeters (cm) deep on three separate dates in Miracle-Gro Potting Mix (Miracle-Grois a registered trademark owned by OMS Investments, Inc., Miracle-Gro Potting Mix is widely available at retail home improvement stores) in 2.5 gallon pots. The pots were filled with 0.007 cubic meters of potting mix. The seeds/plants were watered as needed. The second planting was 10 days after the first planting and the third planting was nine days after the second planting. The plants were treated with 0, 8.4 g ai/hectare, or 16.8 g ai/hectare of GA3 as formulated in RyzUp SmartGrass° (available from Valent BioSciences Corp.) using a TeeJet® 8002 VS spray tip on a manual sprayer set at 15 gallons per acre. Distilled water was used and non-ionic surfactant (0.25% v/v). The treatments were applied on the same day which was 28 days after the first planting (corn was at V6 stage), 18 days after the second planting (corn was at V3 or V4 stages), and 9 days after the third planting (corn was at V1 stage). Crop Heat Units are a way of calculating growth and are calculated on a daily basis, using the maximum (Tmax) and minimum (Tmin) daily air temperatures, measured from midnight to midnight, in degrees Celsius. The Crop Heat Unit (CHU) system uses the following equation which allows growers to more accurately predict the growth of crops compared to using calendar days: Tmax+Tmin÷2−Tbase, wherein Tbase is the base temperature for the crop. During this study, there were a few days following the treatments with temperatures exceeding 24 degrees Celsius and the nights dipped below 10 degrees Celsius. The week immediately following treatment, there was one day above 24 degrees Celsius, each night dipped below 10 degrees Celsius. […] The growth rate of corn also declines when temperatures are above 30 degrees Celsius. In this study, there was an average of 10 CHUs per day following treatment and a total of 83CHUs. The corn was harvested at 1, 2, and 3 weeks after treatment. The plants were washed and roots were separated from shoots.

The subject of assay [3] is Hybrid corn. As to the kind of experiment: Example 3: field study, root count of hybrid corn. The following applies: 2.75 g ai/hectare at V4. The method, then:
A field study was conducted in order to determine the effects of GA3 on root development. Hybrid corn seeds were planted and were treated when the corn was at the V4 stage of development sixteen days after planting. The treatments were 0 or 2.75g ai/hectare of GA3 as formulated in RyzUp SmartGrass® using a TeeJet® 8002 VS spray tips with a backpack sprayer set at 15 gallons per acre. Distilled water was used and non-ionic surfactant (0.25% v/v). The plants were then destructively harvested and their root count was evaluated.

The mark [4] stands for this setting: Hybrid 1, 2.75 g ai/hectare at V4, 32 days after treatment.
[5] abbreviates: Hybrid 2, 2.75 g ai/hectare at V4, 32 days after treatment.

Consider `C=C1C[C@]23C[C@@]1(O)CC[C@H]2[C@@]12C=C[C@H](O)[C@@](C)(C(=O)O1)[C@H]2[C@@H]3C(=O)O` [GA3, gibberellic acid], for which, in the assay on Hybrid corn [1] (setting [4]), the “Dry weight of nodes 1 to 3” value is 2.5, the “Dry weight of nodes 4 to 7” value is recorded as 14.4, the Total dry weight came to 16.9 and the Total roots came to 53.2. For the same compound, in the assay on Hybrid corn [1] (setting [5]), the “Dry weight of nodes 1 to 3” value was 1.7, the “Dry weight of nodes 4 to 7” value came out at 10.1, the Total dry weight was found to be 11.8 and the Total roots was 39. In the assay with Hybrid corn [2] (8.4 g ai/ha GA3), the “# of newest nodal roots exposed/6 plants” value came to 29, the “# of newest nodal roots exposed/plant” value is listed as 4.8, the “# of newest nodal roots exposed/plant with newest nodal roots present” value amounted to 5.8 and the “cm of newest nodal roots exposed/plant” value was found to be 4.2 cm. The “cm of newest nodal roots exposed/plant with newest nodal roots” value in the assay with Hybrid corn [2] (8.4 g ai/ha GA3) amounted to 5.0 cm. In the assay on Hybrid corn [2] (8.4 g ai/ha GA3, foliar spray), the “% of plants with newest nodal roots exposed” value was found to be 83%. Moreover, in the assay on Hybrid corn [2] (16.8 g ai/ha GA3), the “# of newest nodal roots exposed/6 plants” value is 33, the “# of newest nodal roots exposed/plant” value was found to be 5.5, the “# of newest nodal roots exposed/plant with newest nodal roots present” value is on record as 5.5 and the “cm of newest nodal roots exposed/plant” value is on record as 5.3 cm. In addition, the “cm of newest nodal roots exposed/plant with newest nodal roots” value with Hybrid corn [2] (16.8 g ai/ha GA3) stood at 5.3 cm. The “% of plants with newest nodal roots exposed” value in the assay on Hybrid corn [2] (16.8 g ai/ha GA3, foliar spray) was found to be 100%. In addition, the “root count, Treated Compared to Untreated % of Control” value in the assay on Hybrid corn [3] (1 day before treatment (baseline)) is 100.2 % of Control. The “root count, Treated Compared to Untreated % of Control” value with Hybrid corn [3] (4 days after treatment) was 105.6 % of Control. Also, the “root count, Treated Compared to Untreated % of Control” value with Hybrid corn [3] (7 days after treatment) is on record as 105.5 % of Control. The “root count, Treated Compared to Untreated % of Control” value in the assay with Hybrid corn [3] (13 days after treatment) is 107.8 % of Control.
